# Assay results as given in patent US20060167109A1, “Methods of reducing rhinovirus contagion and related compositions” (priority 2002, published 2006).
# Tests used:
# Type in all cases: cell-based
# HRV serotype 39 = experiment: HRV cytopathic effect assay; details: Human rhinovirus sp.
# Description: (§1) For sensitivity testing to pleconaril, the appropriate cells were seeded into 96 well plates at a concentration of 4×10^4/well. After an overnight incubation at 37° C., the medium was removed and the cells were infected with 150 μL of a dilution of virus previously titrated to give ≧85% lysis of the monolayer after 3 days of incubation. The plates were incubated for 1 hour at the appropriate temperature and then overlaid with 50 μL of medium containing serial 2-fold dilutions of pleconaril in 2% DMSO. The final DMSO concentration in the assay was always 0.5%. No virus and no pleconaril controls were included on each plate. All drug concentrations were run in quadruplicate. The plates were then incubated for 3 days at the appropriate temperature followed by processing as described above.
# HRV serotype 91 = experiment: HRV cytopathic effect assay; details: Human rhinovirus sp.
# Description: as §1
# HRV serotype 28 = experiment: HRV cytopathic effect assay; details: Human rhinovirus sp.
# Description: as §1
# HRV serotype 75 = experiment: HRV cytopathic effect assay; details: Human rhinovirus sp.
# Description: as §1
# HRV serotype 13 = experiment: HRV cytopathic effect assay; details: Human rhinovirus sp.
# Description: as §1
# HRV serotype 9 = experiment: HRV cytopathic effect assay; details: Human rhinovirus sp.
# Description: as §1
# HRV serotype 52 = experiment: HRV cytopathic effect assay; details: Human rhinovirus sp.
# Description: as §1
# HRV serotype 87 = experiment: HRV cytopathic effect assay; details: Human rhinovirus sp.
# Description: as §1
# HRV serotype 32 = experiment: HRV cytopathic effect assay; details: Human rhinovirus sp.
# Description: as §1
# HRV serotype 21 = experiment: HRV cytopathic effect assay; details: Human rhinovirus sp.
# Description: as §1
# HRV serotype 74 = experiment: HRV cytopathic effect assay; details: Human rhinovirus sp.
# Description: as §1
# HRV serotype 80 = experiment: HRV cytopathic effect assay; details: Human rhinovirus sp.
# Description: as §1
# HRV serotype 65 = experiment: HRV cytopathic effect assay; details: Human rhinovirus sp.
# Description: as §1
# HRV serotype 98 = experiment: HRV cytopathic effect assay; details: Human rhinovirus sp.
# Description: as §1
# HRV serotype 41 = experiment: HRV cytopathic effect assay; details: Human rhinovirus sp.
# Description: as §1
# HRV serotype 72 = experiment: HRV cytopathic effect assay; details: Human rhinovirus sp.
# Description: as §1
# HRV serotype 7 = experiment: HRV cytopathic effect assay; details: Human rhinovirus sp.
# Description: as §1
# HRV serotype 26 = experiment: HRV cytopathic effect assay; details: Human rhinovirus sp.
# Description: as §1
# HRV serotype 44 = experiment: HRV cytopathic effect assay; details: Human rhinovirus sp.
# Description: as §1
# HRV serotype 49 = experiment: HRV cytopathic effect assay; details: Human rhinovirus sp.
# Description: as §1
# HRV serotype 71 = experiment: HRV cytopathic effect assay; details: Human rhinovirus sp.
# Description: as §1
# HRV serotype 56 = experiment: HRV cytopathic effect assay; details: Human rhinovirus sp.
# Description: as §1
# HRV serotype 5 = experiment: HRV cytopathic effect assay; details: Human rhinovirus sp.
# Description: as §1
# HRV serotype 82 = experiment: HRV cytopathic effect assay; details: Human rhinovirus sp.
# Description: as §1
# HRV serotype 11 = experiment: HRV cytopathic effect assay; details: Human rhinovirus sp.
# Description: as §1
# HRV serotype 38 = experiment: HRV cytopathic effect assay; details: Human rhinovirus sp.
# Description: as §1
# HRV serotype 59 = experiment: HRV cytopathic effect assay; details: Human rhinovirus sp.
# Description: as §1
# HRV serotype 19 = experiment: HRV cytopathic effect assay; details: Human rhinovirus sp.
# Description: as §1
# HRV serotype 24 = experiment: HRV cytopathic effect assay; details: Human rhinovirus sp.
# Description: as §1
# HRV serotype 25 = experiment: HRV cytopathic effect assay; details: Human rhinovirus sp.
# Description: as §1
# HRV serotype 15 = experiment: HRV cytopathic effect assay; details: Human rhinovirus sp.
# Description: as §1
# HRV serotype 77 = experiment: HRV cytopathic effect assay; details: Human rhinovirus sp.
# Description: as §1
# HRV serotype 40 = experiment: HRV cytopathic effect assay; details: Human rhinovirus sp.
# Description: as §1
# HRV serotype 20 = experiment: HRV cytopathic effect assay; details: Human rhinovirus sp.
# Description: as §1
# HRV serotype 86 = experiment: HRV cytopathic effect assay; details: Human rhinovirus sp.
# Description: as §1
# HRV serotype 58 = experiment: HRV cytopathic effect assay; details: Human rhinovirus sp.
# Description: as §1
# HRV serotype 84 = experiment: HRV cytopathic effect assay; details: Human rhinovirus sp.
# Description: as §1
# HRV serotype 43 = experiment: HRV cytopathic effect assay; details: Human rhinovirus sp.
# Description: as §1
# [1] = system: dengue virus type 2, strain New Guinea (DEN-2); experiment: Virus cytopathic effect assay for other viruses; details: Vero
# Description: (§2) The sensitivity of non-picornaviruses to pleconaril was determined in virus cytopathic effect assays similar to the HRV assay for the following viruses: respiratory syncytial virus, strain Long (RSV-A) and herpes simplex virus type II, strain Curtis (HSV-2) on HEp2 cells; influenza virus, strain WSN (FLUA) on MDBK cells; dengue virus type 2, strain New Guinea (DEN-2), and measles virus, strain Edmonston (MeV) on Vero cells; human adenovirus, type 5 (HAdV-5) on HeLa cells (at 33° C.); human coronavirus, strain 229E (Corona) on MRC-5 cells (at 33° C.); and mumps virus, strain Enders (Mumps), reovirus type 1, strain Lang (REOV-1), and parainfluenza virus type 3, strain C243 (HPIV-3) on LLC-MK2d cells. All specificity assays were performed at 37° C. and 5% CO2 except where noted above.
# [2] = system: herpes simplex virus type II, strain Curtis (HSV-2); experiment: Virus cytopathic effect assay for other viruses; details: Human alphaherpesvirus 2, HEp-2
# Description: as §2
smiles,measurement,setting,value
"Cc1cc(CCCOc2c(C)cc(-c3noc(C(F)(F)F)n3)cc2C)on1 [pleconaril, 3-[3,5-dimethyl-4-[3-(3-methyl-5-isoxazolyl)propoxy]phenyl]-5-(trifluoromethyl)-1,2,4-oxadiazole]",IC50,HRV serotype 39,10 nM
same,IC50,HRV serotype 91,730 ± 390 nM
same,IC50,HRV serotype 28,200 ± 70 nM
same,IC50,HRV serotype 75,110 ± 60 nM
same,IC50,HRV serotype 13,580 ± 130 nM
same,IC50,HRV serotype 9,220 ± 80 nM
same,IC50,HRV serotype 52,2490 ± 1210 nM
same,IC50,HRV serotype 87,> 12500 nM
same,IC50,HRV serotype 32,330 ± 130 nM
same,IC50,HRV serotype 21,40 ± 10 nM
same,IC50,HRV serotype 74,30 nM
same,IC50,HRV serotype 80,170 ± 30 nM
same,IC50,HRV serotype 65,330 ± 100 nM
same,IC50,HRV serotype 98,1800 ± 1620 nM
same,IC50,HRV serotype 41,1750 ± 1490 nM
same,IC50,HRV serotype 72,940 ± 300 nM
same,IC50,HRV serotype 7,50 ± 10 nM
same,IC50,HRV serotype 26,1600 ± 600 nM
same,IC50,HRV serotype 44,110 ± 70 nM
same,IC50,HRV serotype 49,170 ± 60 nM
same,IC50,HRV serotype 71,20 ± 10 nM
same,IC50,HRV serotype 56,110 ± 60 nM
same,IC50,HRV serotype 5,> 12500 nM
same,IC50,HRV serotype 82,220 ± 190 nM
same,IC50,HRV serotype 11,150 ± 40 nM
same,IC50,HRV serotype 38,100 ± 40 nM
same,IC50,HRV serotype 59,780 ± 340 nM
same,IC50,HRV serotype 19,200 ± 10 nM
same,IC50,HRV serotype 24,210 ± 20 nM
same,IC50,HRV serotype 25,100 ± 10 nM
same,IC50,HRV serotype 15,590 ± 290 nM
same,IC50,HRV serotype 77,550 ± 290 nM
same,IC50,HRV serotype 40,70 ± 30 nM
same,IC50,HRV serotype 20,60 nM
same,IC50,HRV serotype 86,130 ± 100 nM
same,IC50,HRV serotype 58,40 ± 30 nM
same,IC50,HRV serotype 84,> 12500 nM
same,IC50,HRV serotype 43,230 ± 110 nM
same,IC50,[1],> 12500 nM
same,IC50,[2],> 12500 nM
